Experimental data: patent US12453709B2, “Compositions and methods for treating autism” (priority 2013, dated 2025)

Tested on: symptoms of leaky gut
Assay: Preliminary testing: effect on symptoms of leaky gut
Format: in vivo
From the text: This may be due to the failure of the D amino acid isomer to be transported by the different L amino acid transport systems that exist within the body, or by completion for renal excretion that allows the L isomer to persist for a longer duration.

C[C@](N)(Cc1ccc(O)cc1)C(=O)O (single isomer, unassigned) [Demser, α-methyl-L-tyrosine]
duration of effect on leaky gut symptoms: short lived
effect on the symptoms of leaky gut: beneficial effect
